# Measurements published in US9949953B2, “Topical compositions comprising fipronil and permethrin and methods of use” (priority 2012, dated 2018).
# System: Stomoxys calcitrans
# Assay: Stable fly repellency and parasiticidal (diptericidal) efficacy on rats (Example 1)
# Type: in vivo
# Method: This study evaluated the effectiveness of a formulation of the invention containing fipronil and permethrin to repel and kill Stomoxys calcitrans on rats after a single administration. Rats in the treatment group (Group 2) were treated once on Day 0 with a topical formulation of the invention containing 9.2 (w/w) fipronil and 41.5% (w/w) permethrin in a solvent system containing DMDA and DGME in a ratio of 0.73:1, DMDA to DGME, to deliver a dose of 30 mg/kg permethrin and 6.7 mg/kg fipronil. Rats in Group 3 were treated with a formulation containing permethrin alone to deliver a dose of 30 mg/kg. The two treatment groups were compared with a control group treated with a solvent system placebo.
# Flies are exposed to the treated rats for 1 hr., then removed. Dead flies are counted at the end of the exposure period and at 4 hr and 24 hr post-exposure. […] This finding is significant because fipronil is not known to have repellent activity.
# The diptericidal efficacy of the formulations is shown in Table 1 and represented in FIG. 6. The data for repellency are shown in Table 2 and are represented in FIG. 7.
compound,measurement,setting,value
CC1(C)C(C=C(Cl)Cl)C1C(=O)OCc1cccc(Oc2ccccc2)c1 (stereo not shown) [Permethrin],4 hr % efficacy,"dead flies 4 hr post-exposure, single topical treatment Day 0",82.0%
same,24 hr % efficacy,"dead flies 24 hr post-exposure, single topical treatment Day 0",74.7%
same,EOE % efficacy,"dead flies at end of 1 hr exposure period, single topical treatment Day 0",74.2%
same,% Repellency,"single topical treatment Day 0, measured 24 hours after exposure",41.2%
